{"source": "patent US20260274857A1", "about": "“CRYSTAL OF DIHYDROPYRIDINONE DERIVATIVE OR SOLVATE THEREOF” (Shionogi & Co., Ltd., priority 2022, published 2026)", "format_in_all_cases": "physicochemical", "key": {"[1]": {"assay": "Moisture adsorption/desorption isotherm measurement (DVS)", "settings": "25° C.", "excerpt": "The moisture adsorption/desorption isotherm measurement is a measurement method for measuring the adsorption and desorption behavior of moisture by measuring a weight change in a solid as a measurement target under each relative humidity condition.\nAs a basic measurement method, based on the dry weight at 0% RH (relative humidity 0%), the relative humidity is increased every 5% or 10%, and after the weight is stabilized at each relative humidity, the amount of adsorbed water can be determined from the weight increase from the reference value. Similarly, the desorption amount of water can be measured by decreasing the relative humidity every 5% or 10% from 100% RH or 95% RH.\nBy plotting the value of the weight change at each relative humidity, an adsorption/desorption isotherm can be obtained.\nSorption and desorption of adhesion water and crystal water are affected by particle size, crystallinity, crystal habit, and the like, so that the measurement results may slightly change.\nThe crystals and amorphous substances obtained in each Example were weighed in an aluminum pan, and allowed to stand at 25° C. and a relative humidity of 0%. The measurement was started after the compound was sufficiently dried and the weight was stabilized, and the weight when the relative humidity changed from 0% to 95% by 5% was recorded. Next, the weight when the relative humidity changed from 95% to 0% by 5% was recorded.\nDevice: DVS Advantage manufactured by Surface Measurement Systems"}, "[2]": {"assay": "Solid stability test: storage stability (amount of analogous substance by HPLC, appearance)", "settings": "temperature, temperature and humidity conditions, light irradiation; analogous substance by HPLC and appearance", "procedure": "For the solid stability of the crystal of the compound represented by Formula (I) obtained in Example 1 and the crystal of the compound represented by Formula (II) obtained in Example 16, the chemical stability under temperature, temperature and humidity conditions, and light irradiation was evaluated. The proportion (%) of the analogous substance produced by an HPLC method and the change in appearance were evaluated.\nAbout 10 mg of the crystal was accurately weighed in a 2 mL glass container with a polyethylene stopper. After the glass container was closed, the glass container was stored at 40° C. or 60° C. for 2 weeks, 1 month, 2 months, 3 months, or 6 months. A sample stored at 40° C. is referred to as a 40° C. hermetically sealed product, and a sample stored at 60° C. is referred to as a 60° C. hermetically sealed product. In a state where the glass container was opened, the glass container was stored at a relative humidity of 75±5% at 40° C. or a relative humidity of 89±5% for 2 weeks, 1 month, 2 months, 3 months or 6 months, or in the presence of silica gel at 40° C. for 1 month, 2 months, 3 months or 6 months. A sample stored at 40° C. and a relative humidity of 75±5% or 89±5% is referred to as a 40° C. and 75% relative humidity (also referred to as 40±2° C./75±5% RH) or 40° C. and 89% relative humidity (also referred to as 40±2° C./89% RH) stored product, and a sample stored in the presence of silica gel at 40° C. is referred to as a 40° C. stored product. The −40° C. hermetically sealed product was used as a standard product.\nThe amount of the analogous substance was measured by an area percentage method by the HPLC method under the following conditions.\nHPLC Conditions 1 were used for the crystal and amorphous substance of the compound represented by Formula (I) obtained in Example 1, and HPLC conditions 2 were used for the crystal of the compound represented by Formula (II) obtained in Example 16.\n• Detector: ultraviolet absorptiometer (measurement wavelength: 260 nm) • Column: YMC-Triart C18 ExRS, S-1.9 μm, 3.0×100 mm • Column temperature: constant temperature at near 40° C. • Mobile phase A: 0.1% formic acid aqueous solution • Mobile phase B: acetonitrile • Flow rate: about 0.6 mL/min • Injection amount: 3 μL • Sample cooler temperature: about 6° C. • Feed of mobile phase: The mixing ratio of mobile phase A and mobile phase B was changed as shown in Table 18 to control concentration gradient.\nColumn: Cortecs (2.7 μm 3.0×100 mm)\nColumn temperature: 40° C.\nUV detection wavelength: 254 nm"}, "[3]": {"assay": "Test Example 2: solid stability, 40° C. 89% RH 3 months, amount of analogous substance", "procedure": "The crystal and amorphous substance of the compound represented by Formula (I) obtained in Example 1 were stored (40° C., 89% RH 3M) in a hermetically sealed container at 40° C. and a relative humidity of 89% for 3 months, and subjected to a solid stability test to evaluate the amount of an analogous substance.\nThe crystal or amorphous substance of the compound represented by Formula (I) obtained in Example 1 was dissolved in an acetonitrile aqueous solution (acetonitrile:water=1:1) to prepare a sample solution to be exactly 500 μg/mL.\nThe purity and the amount of the analogous substance were measured by an area percentage method under the HPLC conditions 1 described in Test Example 1.\nThe results of the crystal and amorphous substance of the compound represented by Formula (I) obtained in Example 1 are described in the following table. Impurities detected at a retention time (RT, retention time) of 17.527 minutes indicate an increase amount with respect to a standard product."}}, "data": [{"smiles": "Cc1ccc(-n2nc3c(c2NC(=O)CS(C)(=O)=O)C(=O)N[C@@]2(CCOc4cc(F)cc(F)c42)C3)nc1", "note": "[crystal of the compound represented by Formula (I) obtained ]", "values": [{"measurement": "difference in water content between 0% RH and 95% RH", "setting": "[1]; DVS", "value": "about 1.4%"}, {"measurement": "Moisture adsorption amount", "setting": "[1]; relative humidity 0.0%", "value": 0.000, "unit": "%"}, {"measurement": "Moisture desorption amount", "setting": "[1]; relative humidity 0.0%", "value": 0.063, "unit": "%"}, {"measurement": "Moisture adsorption amount", "setting": "[1]; relative humidity 5.0%", "value": 0.064, "unit": "%"}, {"measurement": "Moisture desorption amount", "setting": "[1]; relative humidity 5.0%", "value": 0.153, "unit": "%"}, {"measurement": "Moisture adsorption amount", "setting": "[1]; relative humidity 10.0%", "value": 0.115, "unit": "%"}, {"measurement": "Moisture desorption amount", "setting": "[1]; relative humidity 10.0%", "value": 0.230, "unit": "%"}, {"measurement": "Moisture adsorption amount", "setting": "[1]; relative humidity 15.0%", "value": 0.174, "unit": "%"}, {"measurement": "Moisture desorption amount", "setting": "[1]; relative humidity 15.0%", "value": 0.316, "unit": "%"}, {"measurement": "Moisture adsorption amount", "setting": "[1]; relative humidity 20.0%", "value": 0.234, "unit": "%"}, {"measurement": "Moisture desorption amount", "setting": "[1]; relative humidity 20.0%", "value": 0.395, "unit": "%"}, {"measurement": "Moisture adsorption amount", "setting": "[1]; relative humidity 25.0%", "value": 0.321, "unit": "%"}, {"measurement": "Moisture desorption amount", "setting": "[1]; relative humidity 25.0%", "value": 0.509, "unit": "%"}, {"measurement": "Moisture adsorption amount", "setting": "[1]; relative humidity 30.0%", "value": 0.449, "unit": "%"}, {"measurement": "Moisture desorption amount", "setting": "[1]; relative humidity 30.0%", "value": 0.638, "unit": "%"}, {"measurement": "Moisture adsorption amount", "setting": "[1]; relative humidity 35.0%", "value": 0.549, "unit": "%"}, {"measurement": "Moisture desorption amount", "setting": "[1]; relative humidity 35.0%", "value": 0.740, "unit": "%"}, {"measurement": "Moisture adsorption amount", "setting": "[1]; relative humidity 40.0%", "value": 0.639, "unit": "%"}, {"measurement": "Moisture desorption amount", "setting": "[1]; relative humidity 40.0%", "value": 0.830, "unit": "%"}, {"measurement": "Moisture adsorption amount", "setting": "[1]; relative humidity 45.0%", "value": 0.719, "unit": "%"}, {"measurement": "Moisture desorption amount", "setting": "[1]; relative humidity 45.0%", "value": 0.917, "unit": "%"}, {"measurement": "Moisture adsorption amount", "setting": "[1]; relative humidity 50.0%", "value": 0.798, "unit": "%"}, {"measurement": "Moisture desorption amount", "setting": "[1]; relative humidity 50.0%", "value": 0.989, "unit": "%"}, {"measurement": "Moisture adsorption amount", "setting": "[1]; relative humidity 55.0%", "value": 0.867, "unit": "%"}, {"measurement": "Moisture desorption amount", "setting": "[1]; relative humidity 55.0%", "value": 1.052, "unit": "%"}, {"measurement": "Moisture adsorption amount", "setting": "[1]; relative humidity 60.0%", "value": 0.925, "unit": "%"}, {"measurement": "Moisture desorption amount", "setting": "[1]; relative humidity 60.0%", "value": 1.113, "unit": "%"}, {"measurement": "Moisture adsorption amount", "setting": "[1]; relative humidity 65.0%", "value": 1.003, "unit": "%"}, {"measurement": "Moisture desorption amount", "setting": "[1]; relative humidity 65.0%", "value": 1.179, "unit": "%"}, {"measurement": "Moisture adsorption amount", "setting": "[1]; relative humidity 70.0%", "value": 1.070, "unit": "%"}, {"measurement": "Moisture desorption amount", "setting": "[1]; relative humidity 70.0%", "value": 1.237, "unit": "%"}, {"measurement": "Moisture adsorption amount", "setting": "[1]; relative humidity 75.0%", "value": 1.150, "unit": "%"}, {"measurement": "Moisture desorption amount", "setting": "[1]; relative humidity 75.0%", "value": 1.288, "unit": "%"}, {"measurement": "Moisture adsorption amount", "setting": "[1]; relative humidity 80.0%", "value": 1.196, "unit": "%"}, {"measurement": "Moisture desorption amount", "setting": "[1]; relative humidity 80.0%", "value": 1.314, "unit": "%"}, {"measurement": "Moisture adsorption amount", "setting": "[1]; relative humidity 85.0%", "value": 1.266, "unit": "%"}, {"measurement": "Moisture desorption amount", "setting": "[1]; relative humidity 85.0%", "value": 1.369, "unit": "%"}, {"measurement": "Moisture adsorption amount", "setting": "[1]; relative humidity 90.0%", "value": 1.350, "unit": "%"}, {"measurement": "Moisture desorption amount", "setting": "[1]; relative humidity 90.0%", "value": 1.407, "unit": "%"}, {"measurement": "Moisture adsorption amount", "setting": "[1]; relative humidity 95.0%", "value": 1.426, "unit": "%"}, {"measurement": "Moisture desorption amount", "setting": "[1]; relative humidity 95.0%", "value": 1.426, "unit": "%"}, {"measurement": "solid stability (in words)", "setting": "[2]", "value": "excellent in solid stability under any conditions"}, {"measurement": "impurities detected at a retention time of 17.527 minutes, increase with respect to standard product (in words)", "setting": "[3]", "value": "increase in impurities could be greatly suppressed"}]}]}
